Assay results: patent US8765728B2, “[1,5]-diazocin derivatives” (MelliTech, priority 2009, dated 2014)

Each compound was assayed on Min6 cell (assay: Insulin secretion response of beta cell line to formula I compounds (insulin ELISA)). Conditions: rank according to % increase versus control at most effective dose.
Format: cell-based
In short: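 After compound or vehicle exposure, Min6 cells were held 2 h in glucose-free medium and preincubated 30 min at 37° C in glucose-free KRBH (pH 7.4, 0.1% BSA). They were then incubated 30 min at 37° C in KRBH with varying glucose. Secreted insulin and acid-ethanol-extracted intracellular insulin were measured by ELISA.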

| SMILES | Insulin secretion (Min6 cell) Range 1 to 5 |
| --- | --- |
| O=C1CCN(C(=O)c2cnccn2)c2ncccc2CN1CC1CC1 [Compound 152, 5-(cyclopropylmethyl)-1-(pyrazine-2-carbonyl)-2,3,5,6-tetrahydropyrido[2,3-b][1,5]diazocin-4(1H)-one] | 3 (3: 120-140% of control) |
| O=C(c1cnccn1)N1CCC(=O)N(C2CC2)Cc2cc(Cl)ccc21 [Compound 133, 8-chloro-5-cyclopropyl-1-(pyrazine-2-carbonyl)-2,3,5,6-tetrahydrobenzo[b][1,5]diazocin-4(1H)-one] | 2 (2: 110-120% of control) |
| COc1ccc2c(c1)CN(C1CC1)C(=O)CCN2C[C@H](O)COc1ccc(Cl)cc1 [Compound 90, (S)-1-(3-(4-chlorophenoxy)-2-hydroxypropyl)-5-cyclopropyl-8-methoxy-2,3,5,6-tetrahydrobenzo[b][1,5]diazocin-4(1H)-one] | 1 (1: 90-110% of control) |
| C=CCOc1c(OC)ccc2c1CN(C1CCCC1)C(=O)CCN2CC(=O)O [Compound 63, 2-(7-(allyloxy)-5-cyclopentyl-8-methoxy-4-oxo-3,4,5,6-tetrahydrobenzo[b][1,5]diazocin-1(2H)-yl)acetic acid] | 1 (1: 90-110% of control) |
| COc1ccc2c(c1)CN(C1CC1)C(=O)CCN2CC(O)c1ccc(OC(F)(F)F)cc1 (stereo not shown) [Compound 33, 5-cyclopropyl-1-(2-hydroxy-2-(4-(trifluoromethoxy)phenyl)ethyl)-8-methoxy-2,3,5,6-tetrahydrobenzo[b][1,5]diazocin-4(1H)-one] | 2 (2: 110-120% of control) |
| COc1ccc2c(c1)CN(C1CC1)C(=O)CCN2CC(=O)c1ccccc1OC [Compound 13, 5-cyclopropyl-8-methoxy-1-(2-(2-methoxyphenyl)-2-oxoethyl)-2,3,5,6-tetrahydrobenzo[b][1,5]diazocin-4(1H)-one] | 1 (1: 90-110% of control) |
| O=C1CCN(CC(O)c2ccc3c(c2)OCCO3)c2ccc(F)cc2CN1C1CC1 (stereo not shown) [Compound 60, 5-cyclopropyl-1-(2-(2,3-dihydrobenzo[b][1,4]dioxin-6-yl)-2-hydroxyethyl)-8-fluoro-2,3,5,6-tetrahydrobenzo[b][1,5]diazocin-4(1H)-one] | 2 (2: 110-120% of control) |
| O=C1CCN(C[C@@H](O)COCc2ccccc2)c2ccc3c(c2CN1C1CC1)OCCO3 [Compound 88, 7-[(2R)-3-(benzyloxy)-2-hydroxypropyl]-11-cyclopropyl-2,3,8,9,11,12-hexahydro[1,4]dioxino[2,3-h][1,5]benzodiazocin-10(7H)-one] | 1 (1: 90-110% of control) |
| Cc1cc(C(=O)N2CCC(=O)N(C3CC3)Cc3cc(OC(F)F)ccc32)n(C)n1 [Compound 114, 5-cyclopropyl-8-(difluoromethoxy)-1-(1,3-dimethyl-1H-pyrazole-5-carbonyl)-2,3,5,6-tetrahydrobenzo[b][1,5]diazocin-4(1H)-one] | 1 (1: 90-110% of control) |
| O=C(c1ccccn1)N1CCC(=O)N(C2CC2)Cc2c1ccc1c2OCCO1 [Compound 132, 11-cyclopropyl-7-picolinoyl-2,3,8,9,11,12-hexahydro-[1,4]dioxino[2′,3′:3,4]benzo[1,2-b][1,5]diazocin-10(7H)-one] | 1 (1: 90-110% of control) |
| O=C1CCN(CC(O)c2cccc(F)c2)c2ccc(F)cc2CN1C1CC1 (stereo not shown) [Compound 47, 5-cyclopropyl-8-fluoro-1-(2-(3-fluorophenyl)-2-hydroxyethyl)-2,3,5,6-tetrahydrobenzo[b][1,5]diazocin-4(1H)-one] | 2 (2: 110-120% of control) |
| COc1ccc2c(c1)CN(C1CC1)C(=O)CCN2CC(O)c1ccc(Cl)cc1 (stereo not shown) [Compound 27, 1-(2-(4-chlorophenyl)-2-hydroxyethyl)-5-cyclopropyl-8-methoxy-2,3,5,6-tetrahydrobenzo[b][1,5]diazocin-4(1H)-one] | 4 (4: 140-170% of control) |
| Cc1cc(C(=O)N2CCC(=O)N(CC3CC3)Cc3cccnc32)on1 [Compound 151, 5-(cyclopropylmethyl)-1-(3-methylisoxazole-5-carbonyl)-2,3,5,6-tetrahydropyrido[2,3-b][1,5]diazocin-4(1H)-one] | 1 (1: 90-110% of control) |
| COc1ccc2c(c1)CN(C1CC1)C(=O)CCN2CC(O)c1ccccc1 (stereo not shown) [Compound 17, 5-cyclopropyl-1-(2-hydroxy-2-phenylethyl)-8-methoxy-2,3,5,6-tetrahydrobenzo[b][1,5]diazocin-4(1H)-one] | 2 (2: 110-120% of control) |
| O=C1CCN(CC(O)c2ccc(N3CCCC3)cc2)c2ccc(F)cc2CN1C1CC1 (stereo not shown) [Compound 64, 5-cyclopropyl-8-fluoro-1-(2-hydroxy-2-(4-(pyrrolidin-1-yl)phenyl)ethyl)-2,3,5,6-tetrahydrobenzo[b][1,5]diazocin-4(1H)-one] | 5 (5: >170% of control) |
| COc1ccc2c(c1)CN(C1CC1)C(=O)CCN2CC(=O)c1cc(OC)ccc1OC [Compound 12, 5-cyclopropyl-1-(2-(2,5-dimethoxyphenyl)-2-oxoethyl)-8-methoxy-2,3,5,6-tetrahydrobenzo[b][1,5]diazocin-4(1H)-one] | 1 (1: 90-110% of control) |
| COc1ccc2c(c1)CN(CC=C(C)C)C(=O)CCN2C(=O)c1ccno1 [Compound 156, 1-(isoxazole-5-carbonyl)-8-methoxy-5-(3-methylbut-2-enyl)-2,3,5,6-tetrahydrobenzo[b][1,5]diazocin-4(1H)-one] | 1 (1: 90-110% of control) |
| O=C(CN1CCC(=O)N(C2CC2)Cc2cc(F)ccc21)c1ccc2c(c1)OCCO2 [Compound 55, 5-cyclopropyl-1-(2-(2,3-dihydrobenzo[b][1,4]dioxin-6-yl)-2-oxoethyl)-8-fluoro-2,3,5,6-tetrahydrobenzo[b][1,5]diazocin-4(1H)-one] | 2 (2: 110-120% of control) |
| O=C1CCN(C[C@@H](O)COc2ccc(Cl)cc2)c2ccc(Cl)cc2CN1C1CC1 [Compound 135, (R)-8-chloro-1-(3-(4-chlorophenoxy)-2-hydroxypropyl)-5-cyclopropyl-2,3,5,6-tetrahydrobenzo[b][1,5]diazocin-4(1H)-one] | 1 (1: 90-110% of control) |
| COc1ccc2c(c1)CN(C1CC1)C(=O)CCN2CC(=O)c1ccc(OC(F)(F)F)cc1 [Compound 23, 5-cyclopropyl-8-methoxy-1-(2-oxo-2-(4-(trifluoromethoxy)phenyl)ethyl)-2,3,5,6-tetrahydrobenzo[b][1,5]diazocin-4(1H)-one] | 1 (1: 90-110% of control) |
| COc1ccc2c(c1)CN(C1CC1)C(=O)CCN2CC(=O)c1ccc2c(c1)OCCO2 [Compound 15, 5-cyclopropyl-1-(2-(2,3-dihydrobenzo[b][1,4]dioxin-6-yl)-2-oxoethyl)-8-methoxy-2,3,5,6-tetrahydrobenzo[b][1,5]diazocin-4(1H)-one] | 3 (3: 120-140% of control) |
| CC(C)(C)C(O)CN1CCC(=O)N(C2CCCC2)Cc2cc(F)ccc21 (stereo not shown) [Compound 154, 5-cyclopentyl-8-fluoro-1-(2-hydroxy-3,3-dimethylbutyl)-2,3,5,6-tetrahydrobenzo[b][1,5]diazocin-4(1H)-one] | 1 (1: 90-110% of control) |
